Experimental data from US5670479A, “α-ketoamide derivatives as inhibitors of thrombosis” (Corvas International, Inc., priority 1994, dated 1997).

Assays:
[1] = target: a-thrombin (Homo sapiens, UniProt P00734); test: Thrombin-induced clotting of purified fibrinogen; assay type: biochemical; conditions: preincubation with a-thrombin 0, 30, 60 minutes before fibrinogen
Description: The clotting time of fibrinogen following the addition of the thrombin/inhibitor complex was measured optically using the Coag-A-Mate XC automated coagulometer (General Diagnostics, Organon Technica, Oklahoma City, Okla.).
This inhibition is reflected as an increase in the relative clotting time which is the ratio of the […]. The control clotting time in this assay is 16.2±0.78 sec.

[2] = target: thrombin (Homo sapiens, UniProt P00734); conditions: reported in literature; cited from earlier work
[3] = test system: baboons; conditions: baboon; dose which gives a 50% inhibition of platelet deposition; other direct antithrombins evaluated earlier in this model; cited from earlier work
[4] = test system: washed human platelets; test: Thrombin-induced aggregation in washed human platelets; assay type: cell-based
Description: Washed human platelets were prepared from freshly isolated venous blood obtained from normal, healthy volunteers who had not taken any medication which might affect platelet function, according to the procedure of Connolly, T. M. et al., J. Biol. Chem., 267: 6893. (1992). Inhibitors, were added in a volume of […] to […] of prewarmed washed platelets in a siliconized glass cuvette (Chronolog Corp., Hayertown, Pa.) followed by […] of 0.25M CaCl2. The rate and extent of aggregation were measured for 5-15 minutes by the change in light transmission in a stirred cuvette, following the addition of […] of a-thrombin (final concentration 2 nM), using a Chronolog Whole Blood Aggregometer equipped with the Aggro/Link data acquisition system (Chronolog Corp., Hayertown, Pa.).

[5] = test system: Male Harlan Sprague Dawley rats; test: Rat model of FeCl3-induced platelet-dependent arterial thrombosis; assay type: in vivo
Source text: Kurz, K. D., Main, B. W., and Sandusky, G. E., Thromb. Res., 60: 269-280. (1990). In this model a platelet-rich, occlusive thrombus is formed in a segment of the rat carotid artery treated with a fresh solution of FeCl3 absorbed to a piece of filter paper. The FeCl3 is thought to diffuse into the treated segment of artery and causes de-endothelialization resulting in thrombus formation. The effect of a test compound on the incidence of occlusive thrombus formation following the application of the FeCl3 is monitored by ultrasonic flowtometry and is used as the primary end point. The use of flowtometry is a modification of the original procedure in which thermal detection of clot formation was employed. Kurz, K. D., Main, B. W., and Sandusky, G. E., Thromb. Res., 60: 269-280 (1990).
Male Harlan Sprague Dawley rats (420-450 g) were acclimated at least 72 hours prior to use and fasted for 12 hours prior to surgery with free access to water. The animals were prepared, anesthetized with Nembutal with catheters for blood pressure monitoring, drug and anesthesia delivery being implanted as described above. The left carotid artery was exposed and isolated by making a midline cervical incision followed by blunt dissection and spreading techniques to separate a 2 cm segment of the vessel from the carotid sheath. A silk suture is inserted under the proximal and distal ends of the isolated vessel to provide clearance for the placement of a ultrasonic flow probe (Transonic) around the proximal end of the vessel. The probe is then secured with a stationary arm.
The test compounds were administered as described above after placement of the flow probe and stabilization of the preparation for a period of 60 minutes prior to the thrombogenic stimulus. At t=0, a 3 mm diameter piece of filter paper (Whatman #3) soaked with […] of a 35% solution of fresh FeCl3 (in water) was applied the segment of isolated carotid artery distal to the flow probe. Blood pressure, blood flow, heart rate, and respiration were monitored for 60 minutes.
The incidence of occlusion (defined as the attainment of zero blood flow) was recorded as the primary end point. Following the 60 minute observation period the flow probe was removed and the area cleared of all excess fluid. The distal and proximal sutures were tied off and arterial clamps placed on the far proximal and distal ends of the segment. The isolated segment was cut out, blotted dry on filter paper and weighed. The segment was re-weighed following removal of the clot and the difference recorded as total % clot (see above). Weights were recorded on only those segments which had detectable thrombus. Following the procedure the animals were euthanized as described above.

[6] = test system: Male Harlan Sprague Dawley rats; test: Venous stasis model in rats; assay type: in vivo; conditions: rat; for % Clot: mean ± S.E.M.
Description: This is one of the most commonly used models in the evaluation of antithrombotic compounds. Hladovec, J. Thromb. […] Talbot, M. D., et. al., Thromb.
Male Harlan Sprague Dawley rats (420-450 g) were acclimated at least 72 hours prior to use. The animals were fasted for 12 hours prior to surgery with free access to water. The animals were anesthetized with a sodium pentobarbital (Nembutal) given intraperitoneally at a dose of 50 mg/kg body weight and placed on a isothermal pad to maintain body temperature. The level of anesthesia was monitored every 15 minutes by: neuro-response to a tail pinch, respiration and body core temperature. The desired depth of surgical anesthesia was maintained by administering subsequent doses (5 mg/kg) intravenously. The left femoral artery was catheterized with polyethylene tubing (PE50) using standard procedures for blood pressure monitoring and blood sampling. The left and right femoral veins were catheterized with PE50 tubing for delivery of anesthetic and test compounds respectively.
Blood pressure, heart rate, core temperature and respiration were monitored continuously.
The abdomen of the animals is opened by making a vertical midline incision followed by isolation of the IVC using dissection. The segment extends from below the renal to above the iliac vessels (about 2 cm in length). The peripheral blood vessels are tied off and a ligature is loosely placed at the distal and proximal ends of the isolated segment. Rabbit brain thromboplastin (RBT)(Sigma Chemical Co., St. Louis Mo.) is prepared by resuspending the contents of the vial with 2 mL of sterile saline pre-warmed to 37° C. At the end of the 30 minute infusion period, RBT is systemically administered as a bolus injection (1.5 mL/kg) via the femoral catheter. Stasis is induced within the isolated IVC segment by securing the proximal and distal ligature 10 sec following the administration of the RBT. Following a 30 minute period of stasis the tied off IVC segment is removed and the contents weighed. Clot formation was defined as %clot: [Weight of the isolated clot/(Weight of the intact segment-the weight of the empty segment)] ×100. This method was used to correct for slight differences in segment size and fluid content.
Following termination of the experiment the animal was euthanized with a 120 mg/kg dose of Nembutal.

[7] = Group 4: 0.1 mg/kg i.v. bolus + 40 mg/kg/min i.v. infusion

(D-Phe)-Pro-Arg-Pro-(Gly)4 -Asn-Gly-Asp-Phe-Glu-Glu-Ile-Pro-Glu-Glu-Tyr-Leu-OH [Hirulog-1]
proteolytic inactivation by thrombin on preincubation [1]: sensitive to proteolytic degradation
Ki [2]: 2.56 nM
Antithrombotic Effects ED50 [3]: 125 nmol/kg/min
persistence of inhibition of aggregation over the 15 minute assay ([4]; 20 nM (compound 8), same or higher concentrations (Hirulog-1), FIG. 4): did not cause sustained inhibition
IC50 ([4]; a-thrombin 2 nM, extent of aggregation over 1 minute, mean ± SD of three): 16 ± 3 nM
Incidence of Occlusion ([5]; Group 1: 0.1 mg/kg i.v. bolus + 5 mg/kg/min i.v. infusion): 3/3
% Clot ([5]; Group 1: 0.1 mg/kg i.v. bolus + 5 mg/kg/min i.v. infusion, mean ± S.E.M., segments with detectable thrombus): 70.1 ± 5.5%
Incidence of Occlusion ([5]; Group 2: 0.1 mg/kg i.v. bolus + 10 mg/kg/min i.v. infusion): 5/6
% Clot ([5]; Group 2: 0.1 mg/kg i.v. bolus + 10 mg/kg/min i.v. infusion, mean ± S.E.M., segments with detectable thrombus): 59.42 ± 4.34%
Incidence of Occlusion ([5]; Group 3: 0.1 mg/kg i.v. bolus + 20 mg/kg/min i.v. infusion): 5/6
% Clot ([5]; Group 3: 0.1 mg/kg i.v. bolus + 20 mg/kg/min i.v. infusion, mean ± S.E.M., segments with detectable thrombus): 45.3 ± 11.63%
% Clot [5, 7]: 0%
Incidence of Occlusion [5, 7]: 0/6
% Clot ([6]; 0.1 mg/kg i.v. bolus + 40 mg/kg/min i.v. infusion): 25.75 ± 3.71%
% Clot ([6]; 0.1 mg/kg i.v. bolus + 60 mg/kg/min i.v. infusion): 26.50 ± 3.59%
% Clot ([6]; 0.1 mg/kg i.v. bolus + 80 mg/kg/min i.v. infusion): 25.75 ± 0.41%
effect on venous thrombus formation induced by stasis and thromboplastin ([6]; summary in words): did not have any effect
